The source of these data is patent US20050249805A1, “Compositions and methods for treating hepatitis C virus (HCV) infection” (priority 2003, published 2005).

Usually Inhibition stands for the relative decrease from the control value, in per cent. The low end stands for a weak effect, the high end for a strong effect. By IC50 is commonly meant the point on the concentration scale where inhibition reaches its midpoint. Low values mean greater potency in that assay, high ones weaker potency in that assay.

Series [1] has as its system carboxylesterase. Put plainly: Hydrolysis of Compound III in human small intestinal microsomes, effect of BNPP. The format is in vitro ADME.
Series [2] relates to carboxylesterase. Put plainly: Hydrolysis of Compound III in human colon microsomes, effect of BNPP. The format is in vitro ADME.
In series [3] the test system is carboxylesterase. Put plainly: Effect of enzyme inhibitors on hydrolysis of III in human liver microsomes. The format is biochemical. The conditions noted are these: for inhibition of hydrolysis of III: highest concentrations (NaF 500 mM, BNPP 500 uM); for effect on hydrolysis of III: PMSF 20-500 uM, Proadifen 5-100 uM. As for the experimental part: Human male liver microsomes (Xenotech LLC, Kansas City, CS) were incubated with III in presence of increasing concentrations of known inhibitors of carboxylesterase, protease, and cytochrome P450 enzymes, followed by LC/MS/MS analysis of a parent compound and a primary metabolite aniline. […] Incubations were carried out at 37° C., at final concentrations of 0.1 M potassium phosphate buffer/0.1 mM EDTA, pH 7.4, specified concentration of inhibitor, 2 μM substrate, 0.5 mg/mL microsomal protein, 0.1% DMSO, 0.5% acetonitrile, in absence of NADPH. Incubations were started with a substrate, following 10 min preincubation of microsomal reaction mixture with inhibitors at 37° C. Reactions were stopped at specified time points with acetonitrile/methanol/DMSO (50:25:25) containing an internal standard.
For orientation: Liver microsomes are vesicles of endoplasmic reticulum, rich in cytochrome P450 enzymes.

Series [4] concerns the target carboxylesterase. Put plainly: IC50 of carboxylesterase inhibitor (reduction in metabolic conversion of anti-HCV compound). The format is biochemical. The source says: The suitability of a carboxylesterase inhibitor may be confirmed by the guidance provided herein and by methods well known in the art. In one embodiment, in vitro systems may be used. For example, body fluids (e.g., blood), tissue homogenates, or microsomal preparations from tissues (e.g., liver, intestine, etc.) are contacted with the anti-HCV compound in presence or absence of varying concentrations of inhibitor. Decrease in substrate concentration and/or accumulation of metabolic product (e.g., aniline metabolite) are measured by techniques that include, by way of example and not limitation, LC/MS/MS, GC/MS and/or HPLC. These initial determinations can provide an IC50 of the carboxylesterase inhibitor sufficient to affect biotransformation of the anti-HCV compounds. Moroever, use of purified carboxylesterase enzymes, cDNA expressed enzymes, cells transfected with cloned carboxylesterase genes, etc., can be used to identify the specific enzymes responsible for the biotransformation.
Generally, an inhibitor plasma concentration of 5 μM or less is a reasonable IC50 for in vivo applications.

Series [5] is described as follows: Effect of BNPP pretreatment on exposure of III in mice. The conditions noted are these: mice pretreated with BNPP vs untreated.
Method: (§4) Balb/c male mice were predosed intraperitoneally with 100 mg/kg (20 mg/mL) of bis(p-nitrophenyl) phosphate (BNPP) in ethanol/polyethylene glycol (PEG400) 10:40 v/v or the vehicle, one hour before dosing with III at 1 mg/kg (1 mg/mL) by intravenous bolus in PEG400, or at 30 mg/kg (5 mL/kg) orally in TGPS/PEG400/PG/PBS.
(§5) Blood samples were collected into heparinized Microtainer tubes, spiked with 30% BNPP solution in ethanol, 10 μl/mL blood. Livers were snap frozen in liquid nitrogen. Samples were stored at −80° C. until analyzed by LC/MS/MS procedure, as described below.
(§6) The MRM mode of detection was used for LC/MS/MS analysis. Test compounds were extracted from plasma by direct protein precipitation with a mixture of acetonitrile, ethanol and dimethyl sulfoxide (DMSO) (2:1:1 v/v) and internal standard. Following vortexing and centrifugation, 10 μL of the extract was analyzed by LC-MS/MS.
(§7) Liver homogenate (20% volume in DMSO: water) was prepared using a Polytron homogenizer. Test compounds were extracted from 100 μL of the homogenized mixture as described for plasma and analyzed by LC/MS/MS.
(§8) LC/MS/MS was performed on PE-Sciex API3000 triple quadrupole mass spectrometer, using Betasil C8 column (3×50 mm, 3 μm), with mobile phase A: 0.1% formic acid in water, and B: 0.1% formic acid in acetonitrile. Multiple reaction monitoring (MRM) in the positive ionization mode and Analyst 1.1 software was used for quantitation and data acquisition.
Series [6] in a line: Metabolic stability in human liver microsomes. The format is in vitro ADME. As for the experimental part: (§1) Liver microsomes prepared from human (male and/or female) or Sprague-Dawley rat (female) (Xenotech LLC, Kansas City, CS), were incubated with compound II (FIG. 3) or III (FIG. 4), followed by LC/MS/MS analysis of a parent compound and a primary metabolite aniline. Incubations were carried out at 37° C., at final concentrations of 0.1 M potassium phosphate buffer/0.1 mM EDTA, pH 7.4, 1 μM substrate, 0.5 mg/mL microsomal protein, 0.01% DMSO, 0.3% acetonitrile, in presence or absence of 1 mM NADPH. Reactions were stopped at specified time points with acetonitrile/methanol/DMSO (50:25:25) containing an internal standard.

The nature of series [7]: Hydrolysis of III in liver microsomes of several species. The format is in vitro ADME, human, monkey, dog, rabbit, rat, mouse. The conditions noted are these: rates per mg protein vary with species. The method, then: FIG. 4A and FIG. 4B show the stability of […] when incubated in presence of microsomes prepared from human liver (FIG. 4A) or rat liver (FIG. 4B).
In series [8] the test system is pig liver carboxylesterase (EC 3.1.1.1). Put plainly: Hydrolysis of III by purified pig liver carboxylesterase. The format is biochemical, porcine. The conditions noted are these: enzyme concentration dependent. As for the experimental part: (§2) The following purified enzymes were used for assays: carboxylesterase from porcine liver (EC 3.1.1.1, Sigma E3019); butyrylcholine esterase, equine serum (pseudocholinesterase EC 3.1.1.8, Sigma C1057); and acetylcholine esterase from electrical eel (EC 3.1.1.7, Sigma C2629).
(§3) Purified enzyme preparations (0.2-2.0 units/mL) were incubated 0-30 min at 37° C. in 0.1 M potassium phosphate buffer, 0.1 mM EDTA, pH 7.4 and 0.5 mg/mL of bovine serum albumin. The substrate was delivered in 0.02% DMSO and 0.6% acetonitrile. Incubations were performed for 0-30 min at 37° C., separately for each time point. The reactions were terminated by precipitation with acetonitrile/ethanol/DMSO mixture, followed by filtering and LC/MS/MS analysis. […] Initial rates of substrate disappearance or product appearance were calculated by linear regression of 5-6 separate incubations.

Series [9] has as its target T1, acetylcholinesterase (AchE: EC 3.1.1.7) (Electrophorus electricus, UniProt O42275).
T1 construct: acetylcholine esterase from electrical eel (EC 3.1.1.7, Sigma C2629); purchased Sigma C2629; host or cells: electric eel
The experiment in a line: Hydrolysis of III by purified acetylcholinesterase. The format is biochemical, electrical eel. The method, then:
as §2, §3

Series [10] has as its target T2, butyrylcholinesterase (BuChE: EC 3.1.1.8) (Equus caballus, UniProt P81908).
T2 construct: butyrylcholine esterase, equine serum (pseudocholinesterase EC 3.1.1.8, Sigma C1057); purchased Sigma C1057; host or cells: equine serum
The experiment in a line: Hydrolysis of III by purified butyrylcholinesterase. The format is biochemical, equine. The method, then: as §2, §3

Another series concerns plasma blood esterases. The experiment in a line: Stabilization of III in mouse blood by carboxylesterase inhibitors. The format is in vitro ADME. The method, then:
Heparinized fresh mouse blood (1.6 mL) from […] was added to Vacutainer Tubes: Cat # 367587, lot 2079758, approx. 2 mL volume (3 mg NaF+6 mg disodium EDTA/tube) and spiked with III at 20 ng/mL blood, with concentration of NaF in blood of […]. Samples were incubated in duplicate at 37° C. up to 2 h. Control samples were incubated in eppendorf tubes without sodium fluoride. Blood concentrations of III and its aniline metabolite were assayed by LC/MS/MS by procedure described in Example 6.

The conditions of series [11]: mouse, in vivo, po.
Method: as §4, §5, §6, §7, §8
Series [12] in a line: In vivo metabolite profile of 14C-labeled II in rats. The conditions noted are these: intravenous administration, HPLC. Also noted: species or system Sprague Dawley rats. As for the experimental part: Following administration of the compound to rats, plasma and liver were analyzed by HPLC for drug related metabolites.
Male Sprague Dawley rats were given either a single 1 mg/kg (1 mL/kg) bolus intravenous dose in 70% polyethylene glycol (PEG) 400/30% saline via a tail vein, or a single 1 mg/kg (2 mL/kg) oral dose in 4% polysorbate 80/96% saline of ^14C-labeled anti-HCV II, with radioactive dose of about 30 μCi per animal.
Groups of rats (n=2/dose route/time point) were sacrificed at specified times from 0 to 3 h after dosing. Heparinized plasma and liver were harvested and stored at −70° C. until analyzed. The plasma was assayed by liquid scintillation counting (LSC) in Beckman LS-6000LL Liquid Scintillation Counter.
Livers were homogenized in deionized water, combusted and analyzed by LSC. Portion of the homogenate was extracted by sonication with acetonitrile, centrifuged, and subjected to radioprofiling of supernatant by the Liquid Chromatography with Accurate Radioisotope Counting (LC-ARC). Agilent Series 1100 with Packard Radiomatic 150 radioactivity detector was used for analysis. Waters Spherisorb ODS1, 5 μm, 250×4.6 mm column was used, with mobile phase A: water/acetic acid/ammonium hydroxide (2000:20:20, v/v/v), B: acetonitrile. The radioactivity of peaks was calculated using ARC Data System software.

A short description of series [13]: Metabolic stability in rat liver microsomes. The format is in vitro ADME, Sprague-Dawley rat. The conditions noted are these: rat liver microsomes (FIG. 4B). As for the experimental part: as §1
Setting [14] is: Human Intestine (pooled 2 subjects), BNPP 50 μM.
Where [15] appears, read: Human Intestine (pooled 2 subjects), BNPP 500 μM.

T2 sequence (P81908 whole entry): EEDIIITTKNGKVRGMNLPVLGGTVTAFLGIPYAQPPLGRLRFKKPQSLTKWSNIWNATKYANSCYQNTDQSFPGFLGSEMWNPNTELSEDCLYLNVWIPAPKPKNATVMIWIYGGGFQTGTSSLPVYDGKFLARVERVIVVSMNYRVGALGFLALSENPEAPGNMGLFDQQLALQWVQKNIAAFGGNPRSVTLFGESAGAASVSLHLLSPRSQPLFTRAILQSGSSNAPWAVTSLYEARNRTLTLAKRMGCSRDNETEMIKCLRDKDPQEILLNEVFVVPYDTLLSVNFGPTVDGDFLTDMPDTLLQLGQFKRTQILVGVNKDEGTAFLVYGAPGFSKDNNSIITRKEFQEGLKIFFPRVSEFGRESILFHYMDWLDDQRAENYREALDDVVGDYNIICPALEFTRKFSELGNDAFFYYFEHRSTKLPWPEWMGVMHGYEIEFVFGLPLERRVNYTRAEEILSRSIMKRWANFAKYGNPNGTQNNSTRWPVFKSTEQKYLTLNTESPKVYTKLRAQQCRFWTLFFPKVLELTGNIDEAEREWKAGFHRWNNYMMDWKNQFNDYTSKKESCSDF
T1 sequence (O42275 24-633): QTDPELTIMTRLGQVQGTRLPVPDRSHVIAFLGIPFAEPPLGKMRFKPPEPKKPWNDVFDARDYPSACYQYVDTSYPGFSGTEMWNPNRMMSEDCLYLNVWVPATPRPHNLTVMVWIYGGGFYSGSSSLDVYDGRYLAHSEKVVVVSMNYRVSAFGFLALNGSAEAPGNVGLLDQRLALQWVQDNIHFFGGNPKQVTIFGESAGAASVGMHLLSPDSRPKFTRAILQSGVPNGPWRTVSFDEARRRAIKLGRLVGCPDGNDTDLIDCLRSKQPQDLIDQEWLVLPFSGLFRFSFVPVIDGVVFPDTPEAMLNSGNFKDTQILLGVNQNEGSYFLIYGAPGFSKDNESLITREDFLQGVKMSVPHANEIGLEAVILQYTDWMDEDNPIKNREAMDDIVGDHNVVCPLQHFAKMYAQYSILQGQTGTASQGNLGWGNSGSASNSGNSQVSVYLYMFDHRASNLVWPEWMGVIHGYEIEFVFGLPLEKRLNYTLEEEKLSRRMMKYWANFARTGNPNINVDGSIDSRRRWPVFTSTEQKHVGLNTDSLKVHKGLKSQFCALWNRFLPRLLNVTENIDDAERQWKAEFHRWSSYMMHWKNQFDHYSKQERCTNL

As for `O=[N+]([O-])c1ccc(OP(=O)(O)Oc2ccc([N+](=O)[O-])cc2)cc1` [BNPP, bis(p-nitrophenyl) phosphate], the Activity came to 28% in the series on carboxylesterase [1] (setting [14]); 432 pmol/min/mg in the series on carboxylesterase [1] (Human Intestine (pooled 2 subjects), BNPP 50 μM, hydrolysis of Compound III 1.8 μM); 2.6% in the series with carboxylesterase [1] (setting [15]); 39 pmol/min/mg in the series with carboxylesterase [1] (Human Intestine (pooled 2 subjects), BNPP 500 μM, hydrolysis of Compound III 1.8 μM); 75% in the series with carboxylesterase [2] (Subject 1, BNPP 50 μM); 192 pmol/min/mg in the series on carboxylesterase [2] (Subject 1, BNPP 50 μM, hydrolysis of Compound III 1.8 μM). For the same compound, the Activity in the series on carboxylesterase [2] (Subject 2, BNPP 50 μM) was determined as 121%; in the series with carboxylesterase [2] (Subject 2, BNPP 50 μM, hydrolysis of Compound III 1.8 μM), 232 pmol/min/mg. The Inhibition in the series on carboxylesterase [1] (setting [14]) is given as 72%; in the series with carboxylesterase [1] (setting [15]), 97%; in the series on carboxylesterase [2] (Subject 1, BNPP 50 μM), 25%; in the series with carboxylesterase [2] (Subject 2, BNPP 50 μM), 0%. For the same compound, the “inhibition of hydrolysis of III” value in the series with carboxylesterase [3] was “Complete inhibition”. In addition, the half-maximal inhibitory concentration (IC50) on carboxylesterase [4] is 10 to 50 µM. Moreover, the “levels of parent compound in the liver” value in series [5] is given as “significantly increased”.
On to `O=C(Nc1ccnc(-c2cc(-c3c(Cl)cccc3Cl)no2)c1)C(Cl)Cl` [Compound III], for which the Activity with carboxylesterase [1] (Human Intestine (pooled 2 subjects) microsomes, BNPP 0 μM, substrate 1.8 μM, substrate disappearance) is 1516 pmol/min/mg; in the series on carboxylesterase [2] (Subject 1 microsomes, BNPP 0 μM, substrate 1.8 μM, substrate disappearance), 257 pmol/min/mg; in the series with carboxylesterase [2] (Subject 2 microsomes, BNPP 0 μM, substrate 1.8 μM, substrate disappearance) it was 192 pmol/min/mg. In addition, the “metabolic stability in vitro of III” value in [6] (human liver microsomes, absence or presence of NADPH) is “Rapid disappearance of the parent compound”. In series [7], the “hydrolysis of III and conversion to aniline metabolite” value was “occurs in microsomes prepared from livers of human, monkey, dog, rabbit, rat, and mouse”. For the same compound, the results for the “hydrolysis of III by purified enzyme” value in series [8], in series [9] and in series [10] were “efficiently hydrolyzed”, “not an efficient substrate” and “not an efficient substrate”, respectively. In the series on plasma blood esterases (absence of NaF), the “stability of III in blood” value is “rapid decrease in the levels of compound”. The Cmax entry in series [11] was “increased”. Besides, in series [11], the “bioavailability (F)” value is listed as “increased”. The circulating metabolite result in series [11] is recorded as “significantly reduced”. In series [11], the “plasma exposure (AUC)” value is on record as “increased”.
For the compound `O=C(Nc1cccc(-c2cc(-c3c(Cl)cccc3Cl)no2)c1)C(Cl)Cl` [Compound II], the “metabolite profile in plasma and liver” value in series [12] is listed as “Aniline is the major product”. Besides, the “stability of II in microsomes” value in [6] (human liver microsomes (FIG. 4A)) and in series [13] was “Rapid disappearance of parent compound” throughout.
Turning to `[F-].[Na+]` [NaF, Sodium fluoride], the “inhibition of hydrolysis of III” value in the series on carboxylesterase [3] is given as “Complete inhibition”. Further, in the series on plasma blood esterases (50 mM NaF), the “effect of inhibitor on hydrolysis of III in blood” value is listed as “prevented hydrolysis”.
In the case of `O=S(=O)(F)Cc1ccccc1` [PMSF, phenylmethanesulphonyl fluoride], the “effect on hydrolysis of III” value in the series with carboxylesterase [3] is “weak inhibition”.
As to `CCCC(C(=O)OCCN(CC)CC)(c1ccccc1)c1ccccc1` [Proadifen, proadifen], the “effect on hydrolysis of III” value in the series with carboxylesterase [3] is “did not affect hydrolysis”.
